IC50 data for 36 molecules are collected here from patent publication US7723368B2, “Amino-5-[4-(difluoromethoxy)phenyl]-5-phenylimidazolone compounds for the inhibition of beta-secretase” (Wyeth LLC, priority 2007, dated 2010).

In general, IC50 refers to the concentration that inhibits the measured activity by half.

This assay concerns the target human BACE1 (Homo sapiens, UniProt P56817). Nature of the assay: BACE1 fluorescent kinetic assay (cleavage of peptide substrate WABC-6). The class given is biochemical. Particulars: 10 nM enzyme, 25 μM substrate WABC-6, pH 4.5, room temperature. The procedure:
Evaluation of BACE1 Binding Affinity of Test Compounds
Fluorescent Kinetic Assays
Dilution and mixing steps: total reaction volume: 100 μL
100 μM substrate dilution in 1×PBS was prepared, and
Fluorescence Readings: Readings at λex 320 nm and λem 420 nm are taken every 40 sec for 30 min at room temperature and the linear slope for substrate cleavage rate (vi) determined.

human BACE1, sequence (P56817 46-501): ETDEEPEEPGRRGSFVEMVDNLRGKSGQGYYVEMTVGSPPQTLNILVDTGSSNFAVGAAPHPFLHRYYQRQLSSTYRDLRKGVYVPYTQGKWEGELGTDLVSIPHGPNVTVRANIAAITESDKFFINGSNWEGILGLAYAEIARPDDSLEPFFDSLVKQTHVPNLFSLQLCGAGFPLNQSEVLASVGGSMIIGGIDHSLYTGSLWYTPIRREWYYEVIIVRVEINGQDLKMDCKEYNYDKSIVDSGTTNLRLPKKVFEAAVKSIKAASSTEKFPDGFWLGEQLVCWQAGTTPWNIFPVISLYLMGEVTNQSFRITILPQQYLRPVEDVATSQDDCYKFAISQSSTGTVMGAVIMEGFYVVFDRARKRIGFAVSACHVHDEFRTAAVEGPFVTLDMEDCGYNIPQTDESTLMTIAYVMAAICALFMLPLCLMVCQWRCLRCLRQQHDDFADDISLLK

For the molecule `CN1C(=O)C(c2ccc(OC(F)F)cc2)(c2cccc(NC(=O)C3CCC3)c2)N=C1N` (stereo not drawn) [Example 29], the IC50 (Activity Table, Examples 1-108) lay in the range of 110 to 1000 nM.

Molecule `CN1C(=O)[C@@](c2ccc(OC(F)F)cc2)(c2cccc(CCCCC#N)c2)N=C1N` [Example 11A, 5-(3-{(4R)-2-amino-4-[4-(difluoromethoxy)phenyl]-1-methyl-5-oxo-4,5-dihydro-1H-imidazol-4-yl}phenyl)pentanenitrile] yielded an IC50 (Activity Table, Examples 1-108) below 100 nM.

Turning to `CN1C(=O)[C@](c2ccc(OC(F)F)cc2)(c2cccc(C#CCCCF)c2)N=C1N` [Example 19F, (5S)-2-amino-5-[4-(difluoromethoxy)phenyl]-5-[3-(5-fluoropent-1-yn-1-yl)phenyl]-3-methyl-3,5-dihydro-4H-imidazol-4-one], under “Activity Table, Examples 1-108”, the IC50 was above 1000 nM.

The molecule `CCOCCC#Cc1cccc(C2(c3ccc(OC(F)F)cc3)N=C(N)N(C)C2=O)c1` (stereo not drawn) [Example 96, 2-Amino-5-[4-(difluoromethoxy)phenyl]-5-[3-(4-ethoxybut-1-yn-1-yl)phenyl]-3-methyl-3,5-dihydro-4H-imidazol-4-one] gave an IC50 (Activity Table, Examples 1-108) below 100 nM.

In turn, `CCOCCC#Cc1cccc(C2(c3ccc(OC(F)F)cc3)N=C(N)N(C)C2=O)c1` (stereo not drawn) [Example 73, 2-Amino-5-[4-(difluoromethoxy)phenyl]-5-[3-(4-ethoxybut-1-yn-1-yl)phenyl]-3-methyl-3,5-dihydro-4H-imidazol-4-one] returned an IC50 (Activity Table, Examples 1-108) below 100 nM.

With `C=CCCCCc1cccc(C2(c3ccc(OC(F)F)cc3)N=C(N)N(C)C2=O)c1` (stereo not drawn) [Example 121, 2-amino-5-[4-(difluoromethoxy)phenyl]-5-(3-hex-5-en-I-ylphenyl)-3-methyl-3,5dihydro-4H-imidazol-4-one], the IC50 (Examples 109-141) was below 100 nM.

Consider `C/C=C/c1cc(C2(c3ccc(OC(F)F)cc3)N=C(N)N(C)C2=O)ccc1F` (stereo not drawn) [Example 75C, 2-amino-5-[4-(difluoromethoxy)phenyl]-5-{4-fluoro-3-[(1E)-prop-1-en-1-yl]phenyl}-3-methyl-3,5-dihydro-4H-imidazol-4-one], for which the IC50 (Activity Table, Examples 1-108) is above 1000 nM.

Consider `CCCCCCc1cccc(C2(c3ccc(OC(F)F)cc3)N=C(N)N(C)C2=O)c1` (stereo not drawn) [Example 126, 2-amino-5-[4-(difluoromethoxy)phenyl]-5-(3-hexylphenyl)-3-methyl-3,5-dihydro-4Himidazol-4-one], for which the IC50 (Examples 109-141) lay in the range of 110 to 1000 nM.

`CN1C(=O)C(c2ccc(OC(F)F)cc2)(c2cccc(CN3CCCC3)c2)N=C1N` (stereo not drawn) [Example 66, 2-amino-5-[4-(difluoromethoxy)phenyl]-3-methyl-5-[3-(pyrrolidin-1-ylmethyl)phenyl]-3,5-dihydro-4H-imidazol-4-one] displayed an IC50 (Activity Table, Examples 1-108) above 1000 nM.

`CN1C(=O)[C@](c2ccc(OC(F)F)cc2)(c2ccc(F)c(/C=C/CCF)c2)N=C1N` [Example 141, (5S)-2-amino-5-[4-(difluoromethoxy)phenyl]-5-{4-fluoro-3-[(1E)-4-fluorobut-1-en-1-yl]phenyl}-3-methyl-3,5-dihydro-4H-imidazol-4-one] showed an IC50 (Examples 109-141) below 100 nM.

Regarding `CN1C(=O)C(c2ccc(OC(F)F)cc2)(c2cccc(NC3CCCCC3)c2)N=C1N` (stereo not drawn) [Example 48], the IC50 (Activity Table, Examples 1-108) fell in the range of 110 to 1000 nM.

On to `C=CCCCOc1cccc([C@@]2(c3ccc(OC(F)F)cc3)N=C(N)N(C)C2=O)c1` [Example 10C, (R)-2-amino-4-(4-(difluoromethoxy)phenyl)-1-methyl-4-(3-(pent-4-enyloxy)phenyl)-1H-imidazol-5(4H)-one], for which the IC50 (Activity Table, Examples 1-108) was below 100 nM.

`COCCCC/C=C/c1cccc([C@@]2(c3ccc(OC(F)F)cc3)N=C(N)N(C)C2=O)c1` [Example 129, (R,E)-2-amino-4-(4-(difluoromethoxy)phenyl)-4-(3-(6-methoxyhex-1-enyl)phenyl)-1-methyl-1H-imidazol-5(4H)-one] showed an IC50 (Examples 109-141) below 100 nM.

As to `CN1C(=O)C(c2ccc(OC(F)F)cc2)(c2cccc(C3CC(CCF)C3)c2)N=C1N` (stereo not drawn) [Example 58, 2-amino-5-[4-(difluoromethoxy)phenyl]-5-{3-[3-(2-fluoroethyl)cyclobutyl]phenyl}-3-methyl-3,5-dihydro-4H-imidazol-4-one], for the setting “Activity Table, Examples 1-108”, the IC50 was 110 to 1000 nM.

Under “Activity Table, Examples 1-108”, `C=CCCOc1cccc(C2(c3ccc(OC(F)F)cc3)N=C(N)N(C)C2=O)c1` (stereo not drawn) [Example 8, 2-amino-5-[3-(but-3-en-1-yloxy)phenyl]-5-[4-(difluoromethoxy)-phenyl]-3-methyl-3,5-dihydro-4H-imidazol-4-one] came in with an IC50 below 100 nM.

In turn, `CCCCNCc1cccc(C2(c3ccc(OC(F)F)cc3)N=C(N)N(C)C2=O)c1` (stereo not drawn) [Example 65, 2-amino-5-{3-[(butylamino)methyl]phenyl}-5-[4-(difluoromethoxy)phenyl]-3-methyl-3,5-dihydro-4H-imidazol-4-one] returned an IC50 (Activity Table, Examples 1-108) of 110 to 1000 nM.

On to `CCCNCc1cccc(C2(c3ccc(OC(F)F)cc3)N=C(N)N(C)C2=O)c1` (stereo not drawn) [Example 64, 2-amino-5-[4-(difluoromethoxy)phenyl]-3-methyl-5-{3-[(propylamino)-methyl]phenyl}-3,5-dihydro-4H-imidazol-4-one], for which, where the note is “Activity Table, Examples 1-108”, the IC50 lay in the range of 110 to 1000 nM.

On to `CN1C(=O)[C@@](c2ccc(OC(F)F)cc2)(c2cccc(C#CCCCF)c2)N=C1N` [Example 19E, (5R)-2-amino-5-[4-(difluoromethoxy)phenyl]-5-[3-(5-fluoropent-1-yn-1-yl)phenyl]-3-methyl-3,5-dihydro-4H-imidazol-4-one], for which, for the setting “Activity Table, Examples 1-108”, the IC50 was below 100 nM.

For `CN1C(=O)C(c2ccc(OC(F)F)cc2)(c2cccc(NC(=O)c3coc4ccccc34)c2)N=C1N` (stereo not drawn) [Example 40], the IC50 (Activity Table, Examples 1-108) is below 100 nM.

Molecule `CC=CC(=O)Nc1cccc(C2(c3ccc(OC(F)F)cc3)N=C(N)N(C)C2=O)c1` (stereo not drawn) [Example 30] displayed an IC50 (Activity Table, Examples 1-108) of 110 to 1000 nM.

For the setting “Examples 109-141”, `CCOCCC(C)c1cccc(C2(c3ccc(OC(F)F)cc3)N=C(N)N(C)C2=O)c1` (stereo not drawn) [Example 112, 2-amino-5-[4-(difluoromethoxy)phenyl]-5-[3-(3-ethoxy-1-methylpropyl)phenyl]-3-methyl-3,5-dihydro-4H-imidazol-4-one] had an IC50 above 1000 nM.

For `CN1C(=O)C(c2ccc(OC(F)F)cc2)(c2ccc(F)c(C#CCCF)c2)N=C1N` (stereo not drawn) [Example 102, 2-amino-5-[4-(difluoromethoxy)phenyl]-5-[4-fluoro-3-(4-fluorobut-1-yn-1-yl)phenyl]-3-methyl-3,5-dihydro-4H-imidazol-4-one], the IC50 (Activity Table, Examples 1-108) is below 100 nM.

Regarding `CN1C(=O)C(c2ccc(OC(F)F)cc2)(c2cccc(C#CCCCF)c2)N=C1N` (stereo not drawn) [Example 19D, 2-amino-5-[4-(difluoromethoxy)phenyl]-5-[3-(5-fluoropent-1-yn-1-yl)phenyl]-3-methyl-3,5-dihydro-4H-imidazol-4-one], the IC50 (Activity Table, Examples 1-108) is below 100 nM.

Consider `CN1C(=O)C(c2ccc(OC(F)F)cc2)(c2cccc(NC3CCCC3)c2)N=C1N` (stereo not drawn) [Example 47], for which, for the setting “Activity Table, Examples 1-108”, the IC50 is below 100 nM.

In turn, `CN1C(=O)[C@](c2ccc(OC(F)F)cc2)(c2ccc(F)c(C#CCCF)c2)N=C1N` [Example 103, (5S)-2-amino-5-[4-(difluoromethoxy)phenyl]-5-[4-fluoro-3-(4-fluorobut-1-yn-1-yl)phenyl]-3-methyl-3,5-dihydro-4H-imidazol-4-one] returned an IC50 (Activity Table, Examples 1-108) above 1000 nM.

Turning to `C=CCCOc1cccc([C@]2(c3ccc(OC(F)F)cc3)N=C(N)N(C)C2=O)c1` [Example 10B, (5S)-2-amino-5-[3-(but-3-en-1-yloxy)phenyl]-5-[4-(difluoromethoxy)phenyl]-3-methyl-3,5-dihydro-4H-imidazol-4-one], under “Activity Table, Examples 1-108”, the IC50 fell in the range of 110 to 1000 nM.

Turning to `C=CC[C@H](C)c1cccc(C2(c3ccc(OC(F)F)cc3)N=C(N)N(C)C2=O)c1` (stereo partly drawn) [Example 110, 2-amino-5-[4-(difluoromethoxy)phenyl]-3-methyl-5-{3-[(1S)-1-methylbut-3-en-1-yl]phenyl}-3,5-dihydro-4H-imidazol-4-one], the IC50 (Examples 109-141) is 110 to 1000 nM.

Under “Activity Table, Examples 1-108”, `CC(C)CC(=O)Nc1cccc(C2(c3ccc(OC(F)F)cc3)N=C(N)N(C)C2=O)c1` (stereo not drawn) [Example 26] showed an IC50 below 100 nM.

`C=CCOc1cccc([C@@]2(c3ccc(OC(F)F)cc3)N=C(N)N(C)C2=O)c1` [Example 10H, (R)-4-(3-(allyloxy)phenyl)-2-amino-4-(4-(difluoromethoxy)phenyl)-1-methyl-1H-imidazol-5(4H)-one] registered an IC50 (Activity Table, Examples 1-108) below 100 nM.

In turn, `CN1C(=O)C(c2ccc(OC(F)F)cc2)(c2cccc(C#CCCCCl)c2)N=C1N` (stereo not drawn) [Example 20B, 2-amino-5-[3-(5-chloropent-1-yn-1-yl)-phenyl]-5-[4-(difluoromethoxy)phenyl]-3-methyl-3,5-dihydro-4H-imidazol-4-one] came in with an IC50 (Activity Table, Examples 1-108) below 100 nM.

In the case of `CN1C(=O)C(c2ccc(OC(F)F)cc2)(c2cccc(NC3CCC3)c2)N=C1N` (stereo not drawn) [Example 50], under “Activity Table, Examples 1-108”, the IC50 fell in the range of 110 to 1000 nM.

Molecule `CN(C)Cc1cccc(C2(c3ccc(OC(F)F)cc3)N=C(N)N(C)C2=O)c1` (stereo not drawn) [Example 62, 2-amino-5-[4-(difluoromethoxy)phenyl]-5-{3-[(dimethylamino)-methyl]phenyl}-3-methyl-3,5-dihydro-4H-imidazol-4-one] registered an IC50 (Activity Table, Examples 1-108) above 1000 nM.

With `CN1C(=O)[C@](c2ccc(OC(F)F)cc2)(c2ccc(F)c(OCCC(F)F)c2)N=C1N` [Example 93, (5S)-2-Amino-5-[4-(difluoromethoxy)phenyl]-5-[3-(3,3-difluoropropoxy)-4-fluorophenyl]-3-methyl-3,5-dihydro-4H-imidazol-4-one], the IC50 (Activity Table, Examples 1-108) fell in the range of 110 to 1000 nM.

As for `CN1C(=O)C(c2ccc(OC(F)F)cc2)(c2cccc(NC(=O)C(F)(F)F)c2)N=C1N` (stereo not drawn) [Example 25], the IC50 (Activity Table, Examples 1-108) was below 100 nM.

Turning to `CN1C(=O)C(c2ccc(OC(F)F)cc2)(c2ccc(F)c(N3CCOCC3)c2)N=C1N` (stereo not drawn) [Example 86, 2-amino-4-(4-(difluoromethoxy)phenyl)-4-(4-fluoro-3-morpholinophenyl)-1-methyl-1H-imidazol-5(4H)-one], the IC50 (Activity Table, Examples 1-108) was 110 to 1000 nM.

Take `C=CC#Cc1cc(C2(c3ccc(OC(F)F)cc3)N=C(N)N(C)C2=O)ccc1F` (stereo not drawn) [Example 87, 2-amino-4-(3-(but-3-en-1-ynyl)-4-fluorophenyl)-4-(4-(difluoromethoxy)phenyl)-1-methyl-1H-imidazol-5(4H)-one]: the IC50 (Activity Table, Examples 1-108) was below 100 nM.
